Measured values reported in patent US10941157B2, “Pesticidal compositions and uses thereof” (Gilead Apollo, LLC, priority 2015, dated 2021).
In brackets after ≈: the same amount, converted by molar mass.

Columns and labels:
Rhizoctonia solani (Rs) = assay: In vitro pathogen growth inhibition assay, Rs (mycelial plugs); format: cell-based; details: Rhizoctonia solani, 48 h, ≥90% growth inhibition; mycelial plugs; 48 hours; vs 2% DMSO control; read-out: Compound Concentration (ppm) sufficient for ≥90% inhibition of Rs
Method in brief: (§1)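 Spores of Dm, Fv and Pc were diluted in 17% V8 liquid medium; Rs used 1.5 mm mycelial plugs in ¼ PDB. Compounds from 2.5 mg/ml DMSO stocks were combined with inoculum, growth was read by OD600 at 24 and 48 h with blank subtraction, and the reported value is the concentration giving ≥90% inhibition.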

Phakopsora pachyrhizi = assay: Foliar protection test for Asian soybean rust control; format: in vivo; details: foliar application to soybean (Glycine max AG4832), percent disease area evaluated 14 days later
[1] = test system: Collectotrichum graminicola (Cg); assay: In vitro pathogen growth inhibition assay, Cg; format: cell-based; details: 48 h, ≥90% growth inhibition; 48 hours; vs 2% DMSO control; read-out: Compound Concentration (ppm) sufficient for ≥90% inhibition of Cg
Method in brief: (§2)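 Spores in 17% V8 liquid medium, or 1.5 mm Rs mycelial plugs in ¼ PDB, incubated with compound; final concentration checked by OD600 for precipitation. OD readings at 24 and 48 h, blank-subtracted, plus visual ratings; value is concentration giving ≥90% growth inhibition.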

Septoria tritici (St) = assay: In vitro pathogen growth inhibition assay, St; format: cell-based; details: Zymoseptoria tritici, 48 h, ≥90% growth inhibition; 48 hours; vs 2% DMSO control; read-out: Compound Concentration (ppm) sufficient for ≥90% inhibition of St
Method in brief: as §2

Fusarium graminearum = format: in vivo; details: spray on flowering Triticum aestivum cv. Samson, inoculated 24 hours after treatment, evaluated 14 days later
[2] = test system: Blumeria graminis f. sp. hordei; assay: Foliar protection test for barley powdery mildew control; format: in vivo; details: foliar spray on Hordeum vulgare cv. Perry, inoculated 24 hours after treatment, evaluated 7 days later
Method in brief: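 Six-day-old barley (cv. Perry) sprayed to wetness on both leaf sides; 24 h later inoculated by shaking spores from infected stock plants. Kept at 20 to 22° C, 70% relative humidity; mildew colonization assessed 7 days later.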

[3] = test system: Mycosphaerella graminicola (synthetic Septoria tritici); assay: Foliar protection test for wheat septoria leaf blotch control; format: in vivo; details: foliar spray on Triticum aestivum cv. WinterHawk, inoculated 1 hour after treatment, evaluated 16 days later
[4] = test system: Phytophthora capsici (Pc); assay: In vitro pathogen growth inhibition assay, Pc; format: cell-based; details: 48 h, ≥90% growth inhibition, 48 hours, vs 2% DMSO control, read-out: Compound Concentration (ppm) sufficient for ≥90% inhibition of Pc
Method in brief: as §1

Botrtyis cinerea (Bc) = assay: In vitro pathogen growth inhibition assay, Bc; format: cell-based; details: 48 h, ≥90% growth inhibition; 48 hours; vs 2% DMSO control; read-out: Compound Concentration (ppm) sufficient for ≥90% inhibition of Bc
Method in brief: as §2

Sphaerotheca fuliginea = assay: Foliar protection for cucumber powdery mildew control; format: in vivo; details: foliar spray on Cucumis sativus cv. Straight Eight, inoculated 24 hours after treatment, evaluated 7 days later
Method in brief: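 Cucumber plants (cv. Straight Eight, 10 days old) sprayed to wetness on both leaf surfaces, then inoculated 24 h later by shaking sporulating stock plants over them. Held at 23–27 °C, 16 h light, 60% RH. Mildew colonization scored 7 days after inoculation, at compound concentrations of 10 ppm or lower.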

[5] = test system: Fusarium virguliforme (Fv); assay: In vitro pathogen growth inhibition assay, Fv; format: cell-based; details: ≥90% growth inhibition, 48 hours, vs 2% DMSO control, read-out: Compound Concentration (ppm) sufficient for ≥90% inhibition of Fv
Method in brief: as §1

Puccinia triticina = assay: Foliar protection test for wheat leaf rust control; format: in vivo; details: foliar application to wheat (Triticum aestivum cv. Winterhawk), evaluated 10 days later
Diplodia maydis (Dm) = assay: In vitro pathogen growth inhibition assay, Dm; format: cell-based; details: Stenocarpella maydis, 48 h, ≥90% growth inhibition; 48 hours; vs 2% DMSO control; read-out: Compound Concentration (ppm) sufficient for ≥90% inhibition of Dm
Method in brief: as §1

[6] = test system: Fusarium moniliforme (Fm); assay: In vitro pathogen growth inhibition assay, Fm; format: cell-based; details: Fusarium verticillioides; ≥90% growth inhibition; 48 hours; vs 2% DMSO control; read-out: Compound Concentration (ppm) sufficient for ≥90% inhibition of Fm
Method in brief: as §2

Structure (SMILES) | IC90 (Rhizoctonia solani (Rs)) [µg/mL] | Asian Soybean Rust Control at a compound concentration of 25 ppm or lower (Phakopsora pachyrhizi) | IC90 [1] [µg/mL] | IC90 (Septoria tritici (St)) [µg/mL] | Wheat Fusarium Head Blight Control at a compound concentration of 25 ppm or lower (Fusarium graminearum) | Barley Powdery Mildew Control at a compound concentration of 10 ppm or lower [2] | Septoria Leaf Blotch Control at a compound concentration of 25 ppm or lower [3] | IC90 [4] [µg/mL] | IC90 (Botrtyis cinerea (Bc)) [µg/mL] | Cucumber Powdery Mildew Control at a compound concentration of 10 ppm or lower (Sphaerotheca fuliginea) | IC90 [5] [µg/mL] | Wheat Leaf Rust Control at a compound concentration of 10 ppm or lower (Puccinia triticina) | IC90 (Diplodia maydis (Dm)) [µg/mL] | IC90 [6] [µg/mL]
COc1ccccc1[C@H](Cn1c(=O)n(C(C)(C)C(=O)NC(C)C)c(=O)c2c(C)c(-n3cccn3)sc21)OCCC#N [Compound I-192, (R)-2-(1-(2-(2-cyanoethoxy)-2-(2-methoxyphenyl)ethyl)-5-methyl-2,4-dioxo-6-(1H-pyrazol-1-yl)-1,4-dihydrothieno[2,3-d]pyrimidin-3 (2H)-yl)-N-isopropyl-2-methylpropanamide] | 0.08 (≈ 0.138 µM) | AA (≥85% control of Asian soybean rust) | ≥ 2 | ≥ 50 | D (<25% control of wheat fusarium head blight) | AA (≥85% control of barley powdery mildew) | A (from 70% to 84% control of wheat septoria leaf blotch) | 50 (≈ 86.4 µM) | 0.4 (≈ 0.691 µM) | AA (≥85% control of cucumber powdery mildew) | 0.4 (≈ 0.691 µM) | AA (≥85% control of wheat leaf rust) | 2 (≈ 3.46 µM) | 0.08 (≈ 0.138 µM)
CCOC(=O)c1sc2c(c1C)c(=O)n(C(C)(C)C(=O)NC(C)C)c(=O)n2C[C@H](OC[C@@H](C)C#N)c1cc(F)ccc1OC [Compound I-258, (R)-ethyl-1-(2-((S)-2-cyanopropoxy)-2-(5-fluoro-2-methoxyphenyl)ethyl)-3-(1-(isopropylamino)-2-methyl-1-oxopropan-2-yl)-5-methyl-2,4-dioxo-1,2,3,4-tetrahydrothieno[2,3-d]pyrimidine-6-carboxylate] | 0.08 (≈ 0.13 µM) | C (from 25 to 49% control of Asian soybean rust) | 0.08 (≈ 0.13 µM) | ≥ 2 | C (from 25 to 49% control of wheat fusarium head blight) | A (from 70% to 84% control of barley powdery mildew) | B (from 50 to 69% control of wheat septoria leaf blotch) | ≥ 10 | 0.4 (≈ 0.649 µM) | AA (≥85% control of cucumber powdery mildew) | 0.4 (≈ 0.649 µM) | A (from 70% to 84% control of wheat leaf rust) | 0.4 (≈ 0.649 µM) | 0.08 (≈ 0.13 µM)
